In the test the target is T1, DrOTOP1 M133W (Danio rerio, UniProt Q7ZWK8, M133W).
T1 construct: A previously generated codon-optimized full-length DrOTOP1[8]; (UniProt: Q7ZWK8) construct; expressed in transfected cells; host or cells: HEK-293 (CRL-1573, ATCC)
T1 sequence (Q7ZWK8 1-586 M133W): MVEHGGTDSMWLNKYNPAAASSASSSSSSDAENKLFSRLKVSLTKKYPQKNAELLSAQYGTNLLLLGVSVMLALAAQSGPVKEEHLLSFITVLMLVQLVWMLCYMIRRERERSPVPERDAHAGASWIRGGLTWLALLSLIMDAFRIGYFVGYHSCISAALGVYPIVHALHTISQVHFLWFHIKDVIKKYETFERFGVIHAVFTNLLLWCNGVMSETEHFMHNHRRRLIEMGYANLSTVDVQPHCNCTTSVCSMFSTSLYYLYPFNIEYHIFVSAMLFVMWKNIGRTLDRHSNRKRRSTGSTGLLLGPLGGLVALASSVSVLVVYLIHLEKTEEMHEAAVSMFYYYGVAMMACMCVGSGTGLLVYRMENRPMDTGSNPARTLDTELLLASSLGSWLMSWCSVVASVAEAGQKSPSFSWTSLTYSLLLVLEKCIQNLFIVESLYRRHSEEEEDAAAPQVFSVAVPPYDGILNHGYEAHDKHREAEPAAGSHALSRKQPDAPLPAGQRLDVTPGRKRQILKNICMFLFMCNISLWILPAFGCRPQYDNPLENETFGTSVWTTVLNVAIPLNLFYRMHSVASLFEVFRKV
Nature of the test: Whole-cell patch-clamp, inhibition of acid-evoked currents, DrOTOP1 M133W. It counts as cell-based, zebrafish (Danio rerio). The source says: To functionally test the significance of the two binding sites identified by cryo-EM, we generated point mutations of DrOTOP1 using the binding poses and conformational changes observed in DrOTOP1_C2.2 to guide our mutations. As per the binding pose that best fits our cryo-EM density, C2.2 forms the following interactions in the outer site: hydrophobic packing against many non-polar residues W126, G130, M133, L134, F271, F570, and M573, and π-stacking with W532 (Fig. 5A). In addition, C2.2 could potentially form H-bonds with E267, if the sidechain is protonated or a water bridge is present, and with H574 if it moves closer (Fig. 5A). Likewise, C2.36 presents a heterocyclic nitrogen that can potentially form a H-bond with E267, similarly, provided a protonation or water bridge is present (Fig. 5B). In addition, C2.36 forms a T-shaped π-stacking interaction with H574, whose sidechain has rotated 90 degrees (compared to DrOTOP1_apo), presumably to accommodate the interaction (Fig. 5B). Considering other inhibitors discovered from the second round of screening, many contain functional groups like the carbonyl groups of Group 1 molecules and the heterocyclic nitrogen atoms of Group 2 molecules (Supplementary Fig. 3E), that can potentially form similar H-bonds with E267 as C2.2 and C2.36, assuming the binding modes are similar. In the central site, C2.2 binds with the following interactions: hydrophobic packing with residues V201, F271, A274, V278, and A388, π-stacking with F277, and H-bonding with E384 (Fig. 5C).
Each non-aromatic residue was mutated to tryptophan, which was expected to cause steric occlusion. […]
Whole-cell patch-clamp recording was performed as previously described[6],[22],[25]. Recordings were made with an Axopatch 200B amplifier, digitized with a Digidata 1322a 16-bit data acquisition system, acquired with pClamp 8.2 and analyzed with Clampfit 10 (Molecular Devices). […]
In general terms: In patch-clamp work, channel activity is measured electrically.

Values joined by “and” are separate entries in the source; they are usually repeats but may differ in a detail not shown here. Equal values may be shown once.

As for `C=C(C)COc1ccccc1NC(=O)c1nc[nH]c1C` [C2.2], the Inhibition of currents (10 µM, single cells or mean, mean) is on record as 71.39%; the Inhibition of currents (10 µM, single cells or mean, single cells) was 74.2591% and 52.599% and 79.1509% and 79.3522% and 71.5803%.
For `O=C(/C(=N\O)c1ccccc1)c1ccccc1` [C11, benzil monoxime], the Inhibition of currents (100 µM, single cells) is 51.1084% and 50.3496% and 47.6418% and 59.4138% and 72.1088%.

Values taken from PMC12549899 (Nature Communications, 2025).
